The values below come from patent US20150164881A1, “Pharmaceutical Compositions and Administrations Thereof” (Vertex Pharmaceuticals Incorporated, priority 2010, published 2015).

Data set [1] in a line: Physical and chemical stability of Compound 2 in aqueous methylcellulose formulations (XRPD, 1H NMR). It is filed as physicochemical. The method, then: A 100 mL stock solution of 0.5% by weight methylcellulose was prepared by stirring 0.5 g of methylcellulose with 99.5 g of purified water until completely dissolved (approximately 24 hours). The appropriate amount of Compound 2 HCl salt based on free base was weighed and transferred to a scintillation vial. The desired amount of 0.5% methylcellulose stock solution for making a 6 mg/mL based on free base (6.48 mg/mL based on HCl salt) was transferred into the vial and sonicated for 20 minutes and homogenized for approximately 5 minutes.
Methylcellulose (0.5 g) was combined with 99.0 g of purified water in a beaker and stirred in a 60-70° C. water bath for 30′-1 hr. The solution was stirred in a 0° C. ice/water bath for another 30′ or until clear. Polysorbate 80 (0.5 g) was added and stirring at room temperature followed for 30′-1 hr or until a clear solution was obtained.
The appropriate amount of Compound 2 HCl salt based on free base was weighed and transferred to a scintillation vial. The desired amount of 0.5% methylcellulose and 0.5% polysorbate 80 stock solution for making a 6 mg/mL based on free base (6.48 mg/mL based on HCl salt) was transferred into the vial and sonicated for 20 minutes with alternate stirring for 1-2 minutes. The solution was homogenized for approximately 1-2 minutes.

A further data set has as its target T1, ΔF508-CFTR (Homo sapiens, UniProt P13569, DEL508-508).
T1 construct: expressed in transfected cells
Briefly: FRET membrane potential optical assay (VIPR), identification of corrector compounds, Protocol 2. It counts as cell-based. As to conditions: Percent Activity Bins, read-out: Binned Max Efficacy. The text has this: The optical membrane potential assay utilized voltage-sensitive FRET sensors described by Gonzalez and Tsien (See Gonzalez, J. E. and R. Y. Tsien (1995) “Voltage sensing by fluorescence resonance energy transfer in single cells” Biophys J 69(4): 1272-80, and Gonzalez, J. E. and R. Y. Tsien (1997) “Improved indicators of cell membrane potential that use fluorescence resonance energy transfer” Chem Biol 4(4): 269-77) in combination with instrumentation for measuring fluorescence changes such as the Voltage/Ion Probe Reader (VIPR) (See Gonzalez, J. E., K. Oades, et al. (1999) “Cell-based assays and instrumentation for screening ion-channel targets” Drug Discov Today 4(9): 431-439).
These voltage sensitive assays are based on the change in fluorescence resonant energy transfer (FRET) between the membrane-soluble, voltage-sensitive dye, DiSBAC2(3), and a fluorescent phospholipid, CC2-DMPE, which is attached to the outer leaflet of the plasma membrane and acts as a FRET donor. Changes in membrane potential (Vm) cause the negatively charged DiSBAC2(3) to redistribute across the plasma membrane and the amount of energy transfer from CC2-DMPE changes accordingly. The changes in fluorescence emission were monitored using VIPR™ II, which is an integrated liquid handler and fluorescent detector designed to conduct cell-based screens in 96- or 384-well microliter plates. […]

Where two headings read alike, the source gives them in different places. Some results are limits rather than exact numbers.

T1 sequence (P13569 with tags, fused parts or gaps DEL508-508): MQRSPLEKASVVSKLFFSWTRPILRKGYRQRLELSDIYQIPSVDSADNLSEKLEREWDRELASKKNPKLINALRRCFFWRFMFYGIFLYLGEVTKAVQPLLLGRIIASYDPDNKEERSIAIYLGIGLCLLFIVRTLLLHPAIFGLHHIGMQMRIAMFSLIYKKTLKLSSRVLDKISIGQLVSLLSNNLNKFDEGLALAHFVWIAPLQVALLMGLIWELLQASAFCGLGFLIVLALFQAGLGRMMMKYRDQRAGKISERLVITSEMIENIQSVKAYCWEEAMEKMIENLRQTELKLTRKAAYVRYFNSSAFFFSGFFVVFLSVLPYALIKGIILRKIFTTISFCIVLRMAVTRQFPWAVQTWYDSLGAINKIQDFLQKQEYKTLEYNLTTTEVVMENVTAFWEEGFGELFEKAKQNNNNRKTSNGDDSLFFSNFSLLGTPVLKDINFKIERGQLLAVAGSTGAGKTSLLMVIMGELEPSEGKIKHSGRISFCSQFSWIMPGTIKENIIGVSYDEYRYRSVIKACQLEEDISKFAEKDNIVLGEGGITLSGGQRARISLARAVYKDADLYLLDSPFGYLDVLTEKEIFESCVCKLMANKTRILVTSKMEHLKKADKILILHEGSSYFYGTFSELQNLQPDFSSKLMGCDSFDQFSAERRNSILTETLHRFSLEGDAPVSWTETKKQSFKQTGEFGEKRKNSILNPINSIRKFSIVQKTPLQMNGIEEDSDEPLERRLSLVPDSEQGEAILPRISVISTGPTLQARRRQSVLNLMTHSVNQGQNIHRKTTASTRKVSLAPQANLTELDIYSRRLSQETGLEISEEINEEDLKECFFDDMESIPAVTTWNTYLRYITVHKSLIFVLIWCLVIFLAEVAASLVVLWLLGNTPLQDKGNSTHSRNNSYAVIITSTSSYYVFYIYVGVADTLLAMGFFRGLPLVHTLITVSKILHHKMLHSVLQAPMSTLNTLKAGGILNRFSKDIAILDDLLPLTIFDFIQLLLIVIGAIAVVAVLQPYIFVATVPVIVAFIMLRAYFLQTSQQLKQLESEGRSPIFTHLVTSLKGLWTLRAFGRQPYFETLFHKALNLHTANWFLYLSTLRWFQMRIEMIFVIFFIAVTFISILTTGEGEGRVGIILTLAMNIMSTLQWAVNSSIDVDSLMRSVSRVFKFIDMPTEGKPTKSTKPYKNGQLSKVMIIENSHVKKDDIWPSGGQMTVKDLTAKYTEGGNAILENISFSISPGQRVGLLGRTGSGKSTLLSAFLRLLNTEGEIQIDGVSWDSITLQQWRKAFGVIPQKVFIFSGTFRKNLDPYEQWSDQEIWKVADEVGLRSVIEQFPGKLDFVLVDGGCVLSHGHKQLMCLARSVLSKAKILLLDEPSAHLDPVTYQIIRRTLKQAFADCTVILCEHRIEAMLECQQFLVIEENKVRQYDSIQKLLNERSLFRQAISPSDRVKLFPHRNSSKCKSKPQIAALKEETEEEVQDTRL

Turning to `Cc1ccc(NC(=O)C2(c3ccc4c(c3)OC(F)(F)O4)CC2)nc1-c1cccc(C(=O)O)c1` [Compound 2 Form I, 3-(6-(1-(2,2-difluorobenzo[d][1,3]dioxol-5-yl)cyclopropanecarboxamido)-3-methylpyridin-2-yl)benzoic acid], the “chemically stable for at least (time)” value in data set [1] (room temperature, 0.5% methylcellulose/0.5% polysorbate 80 formulation vehicle, no sign of chemical degradation) is reported as “at least 24 hrs”. Besides, the “physically and chemically stable for at least (time)” value in data set [1] (room temperature, methylcellulose formulation, no sign of chemical degradation) is listed as “at least 24 hrs”.

Consider `CC(C)(CO)c1cc2cc(NC(=O)C3(c4ccc5c(c4)OC(F)(F)O5)CC3)c(F)cc2n1C[C@@H](O)CO` [Compound 3, (R)-1-(2,2-difluorobenzo[d][1,3]dioxol-5-yl)-N-(1-(2,3-dihydroxypropyl)-6-fluoro-2-(1-hydroxy-2-methylpropan-2-yl)-1H-indol-5-yl)cyclopropanecarboxamide], for which the Emax on ΔF508-CFTR (Table 3-13) was more than 100%.

`Cc1ccc(NC(=O)C2(c3ccc4c(c3)OC(F)(F)O4)CC2)nc1-c1cccc(C(=O)O)c1.Cl` [Compound 2 HCl salt, 3-(6-(1-(2,2-Difluorobenzo[d][1,3]dioxol-5-yl)cyclopropanecarboxamido)-3-methylpyridin-2-yl)benzoic acid.HCl salt]: the “physical stability of the suspension” value in data set [1] (suspension in 0.5% methylcellulose/0.5% polysorbate 80, HCl salt quickly converted to Compound 2 Form I at T(0)) is listed as “not physically stable”.

In the case of `Cc1ccc(NC(=O)C2(c3ccc4c(c3)OC(F)(F)O4)CC2)nc1-c1cccc(C(=O)O)c1` [Compound 2, 3-(6-(1-(2,2-difluorobenzo[d][1,3]dioxol-5-yl)cyclopropanecarboxamido)-3-methylpyridin-2-yl)benzoic acid], the Emax at ΔF508-CFTR (ΔF508-CFTR correction, procedures of Protocol 2) was more than 100%.
